Data from ChEMBL document CHEMBL1268982, “Design, synthesis, and structure-activity relationship studies of N-arylsulfonyl morpholines as γ-secretase inhibitors” (Bioorg Med Chem Lett, 2010).

Assays:
[1] = Inhibition of gamma-secretase-mediated amyloid beta-40 production
[2] = AUC (0 to 6 hrs) in rat at 10 mg/kg, po; format: ADME, organism-based; parameters: time < 6 hr, dose 10 mg/kg, route oral; conditions: plasma
Cytochrome P450 3A4 = Cytochrome P450 3A4 (Homo sapiens, UniProt P08684); assay: Inhibition of CYP3A4 after 30 mins; format: ADME
Sequence of Cytochrome P450 3A4 (P08684 whole entry): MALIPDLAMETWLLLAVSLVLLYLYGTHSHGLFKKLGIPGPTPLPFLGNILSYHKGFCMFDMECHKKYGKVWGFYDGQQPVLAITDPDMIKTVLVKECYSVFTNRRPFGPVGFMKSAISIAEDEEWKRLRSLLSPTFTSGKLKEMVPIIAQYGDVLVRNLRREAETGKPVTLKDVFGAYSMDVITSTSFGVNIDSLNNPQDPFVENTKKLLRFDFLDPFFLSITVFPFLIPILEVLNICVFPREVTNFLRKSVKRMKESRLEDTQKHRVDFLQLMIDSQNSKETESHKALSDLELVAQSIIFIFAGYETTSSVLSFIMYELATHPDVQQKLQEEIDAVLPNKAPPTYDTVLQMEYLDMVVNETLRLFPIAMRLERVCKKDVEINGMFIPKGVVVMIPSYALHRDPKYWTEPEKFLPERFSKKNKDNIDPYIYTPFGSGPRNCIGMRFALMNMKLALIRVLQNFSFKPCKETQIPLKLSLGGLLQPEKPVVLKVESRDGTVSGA

| SMILES | IC50 [1] [nM] | AUC(0-t) at 6 h [2] [µM·h] | IC50 (Cytochrome P450 3A4) [nM] |
| --- | --- | --- | --- |
| CC(C)[C@@H]1COC[C@H](C2(OC(=O)N3CCC(CO)CC3)CC2)N1S(=O)(=O)c1ccc(Cl)cc1 | 6.5 |  | 13800 |
| CC(C)(C)[C@@H]1COC[C@H](COC(=O)N2CCN(C(C)(C)CO)CC2)N1S(=O)(=O)c1ccc(Cl)cc1 | 34.7 |  | 23800 |
| CC1([C@@H]2COC[C@H](COC(=O)N3CCC(N4CCCCC4)CC3)N2S(=O)(=O)c2ccc(Cl)cc2)CC1 | 20.4 |  | 1500 |
| O=C(OC1([C@H]2COC[C@@H](CC3CC3)N2S(=O)(=O)c2ccc(Cl)cc2)CC1)N1CC2CCC(C1)N2 | 0.8 | 4.58 | 800 |
| CC(=O)N1C2CCC1CN(C(=O)OC1([C@H]3COC[C@@H](CC4CC4)N3S(=O)(=O)c3ccc(Cl)cc3)CC1)C2 | 4.4 | 0.013 | > 30000 |
| CCNC(=O)N1C2CCC1CN(C(=O)OC1([C@H]3COC[C@@H](CC4CC4)N3S(=O)(=O)c3ccc(Cl)cc3)CC1)C2 | 5.5 | 0.06 | > 30000 |
| C[C@@H]1CN(C(=O)OC2([C@H]3COC[C@@H](CC4CC4)N3S(=O)(=O)c3ccc(Cl)cc3)CC2)C[C@H](C)N1CCO | 11.6 | 1.23 | 2000 |
| CN1CCC12CCN(C(=O)OC1([C@H]3COC[C@@H](CC4CC4)N3S(=O)(=O)c3ccc(Cl)cc3)CC1)CC2 | 2.6 | 0.894 | 30000 |
| O=C1CC2(CCN(C(=O)OC3([C@H]4COC[C@@H](CC5CC5)N4S(=O)(=O)c4ccc(Cl)cc4)CC3)CC2)N1 | 7.4 | 0.037 | > 30000 |

Next, values leading:

| IC50 [1] [nM] | AUC(0-t) at 6 h [2] [µM·h] | IC50 (Cytochrome P450 3A4) [nM] | SMILES |
| --- | --- | --- | --- |
| 2 | 4.97 | 500 | CC(C)[C@@H]1COC[C@H](C2(OC(=O)N3CC4CCC(C3)N4)CC2)N1S(=O)(=O)c1ccc(Cl)cc1 |
| 18.9 | 0.036 | 13600 | CC(C)[C@@H]1COC[C@H](C2(OC(=O)N3CC[C@@H](O)C3)CC2)N1S(=O)(=O)c1ccc(Cl)cc1 |
| 17 |  | 30000 | CC(C)[C@@H]1COC[C@H](C2(OC(=O)N3CC[C@H](O)C3)CC2)N1S(=O)(=O)c1ccc(Cl)cc1 |
| 9.3 | 1.12 | 6400 | CC(C)[C@@H]1COC[C@H](C2(OC(=O)N3CC4CNCC4C3)CC2)N1S(=O)(=O)c1ccc(Cl)cc1 (stereo partly specified) |
| 14.5 | 3.93 | 300 | CC(C)[C@@H]1COC[C@H](C2(OC(=O)N3CCNCC3)CC2)N1S(=O)(=O)c1ccc(Cl)cc1 |
| 108 |  | 7100 | CC(C)(C)[C@@H]1COC[C@H](COC(=O)N2CCC(CO)CC2)N1S(=O)(=O)c1ccc(Cl)cc1 |
| 131 |  | 5500 | CC1([C@@H]2COC[C@H](COC(=O)N3CCC(CO)CC3)N2S(=O)(=O)c2ccc(Cl)cc2)CC1 |
| 39.3 |  | 500 | CC1([C@@H]2COC[C@H](COC(=O)N3CCN(C(C)(C)CO)CC3)N2S(=O)(=O)c2ccc(Cl)cc2)CC1 |
| 0.9 | 1.28 | 2300 | O=C(OC1([C@H]2COC[C@@H](CC3CC3)N2S(=O)(=O)c2ccc(Cl)cc2)CC1)N1CC2CCC(C1)N2CCO |
| 3.6 | 1.35 | 3200 | O=C(OC1([C@H]2COC[C@@H](CC3CC3)N2S(=O)(=O)c2ccc(Cl)cc2)CC1)N1CC2CC1CN2CCO (stereo partly specified) |
| 5.7 | 1.02 | 1400 | CN1CCN(C(=O)OC2([C@H]3COC[C@@H](CC4CC4)N3S(=O)(=O)c3ccc(Cl)cc3)CC2)CC1=O |
| 29.3 |  | > 30000 | CC[C@H]1CN(C(C)=O)[C@H](C)CN1C(=O)OC1([C@H]2COC[C@@H](CC3CC3)N2S(=O)(=O)c2ccc(Cl)cc2)CC1 |
| 27.6 | 0.077 | > 30000 | CC(C)(CO)N1CCN(C(=O)OC2([C@H]3COC[C@@H](CC4CC4)N3S(=O)(=O)c3ccc(Cl)cc3)CC2)CC1 |
| 3.1 | 1.34 | 11300 | O=C(OC1([C@H]2COC[C@@H](CC3CC3)N2S(=O)(=O)c2ccc(Cl)cc2)CC1)N1CCC2(CCN2)CC1 |
